Tests used:
SBPase [1] = molecular target: T1, SBPase (Arabidopsis thaliana, UniProt P46283); test: malachite green phosphate release assay; assay type: biochemical; conditions: read-out: % inhibition at 10 mM
T1 construct: gene At3g55800
T1 sequence (P46283 75-393): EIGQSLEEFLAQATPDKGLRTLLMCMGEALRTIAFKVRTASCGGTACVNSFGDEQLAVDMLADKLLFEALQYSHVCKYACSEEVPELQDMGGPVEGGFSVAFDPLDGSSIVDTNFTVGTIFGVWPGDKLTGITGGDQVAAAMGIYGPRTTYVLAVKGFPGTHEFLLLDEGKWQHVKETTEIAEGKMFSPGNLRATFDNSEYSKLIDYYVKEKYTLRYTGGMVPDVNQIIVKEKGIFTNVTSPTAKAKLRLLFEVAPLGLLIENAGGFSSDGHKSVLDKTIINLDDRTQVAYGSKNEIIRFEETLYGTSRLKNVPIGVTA

SBPase [2] = molecular target: T1, SBPase; test: malachite green phosphate release assay; assay type: biochemical; conditions: 500 µM; alternative substrate; 15 mM MgCl2, 10 mM DTT; thioredoxin F1-activated; room temperature activation

inhibition at 10000 µM (SBPase [1]) [%]	SMILES	malachite green phosphate release assay (SBPase [2])
~57	O=C1O[C@H]([C@@H](O)CO)C(O)=C1O [Ascorbate]	–
–	O=P(O)(O)OC[C@H]1OC(O)(COP(=O)(O)O)[C@@H](O)[C@@H]1O (some centres unmarked) [fructose-1-6-bisphosphate]	conversion rate of the alternative SBPase substrate fructose-1-6-bisphosphate to fructose-6-phosphate
